Measurements as given in ChEMBL document CHEMBL3638705, “Imidazo-, pyrazolopyrazines and imidazotriazines and their use” (2013).

Biological target: Glycogen synthase kinase-3 beta (Homo sapiens, UniProt P49841)
Assay: Biochemical Assay: The ingredients required for this purpose are mixed in a black 384-well microtiter plate with transparent base (from Greiner, catalog number 781092). The requirements in this connection for each well of the 384-well microtiter plate are 5 nM GSK3β (from Upstate, catalog number xy), 40 μM GSK3β substrate GSM (sequence H-RRRPASVPPSPSLSRHS-(pS)-HQRR, from Upstate, catalog number 2-533), 30 μM nicotinamide adenine dinucleotide NADH (Roche Diagnostics, catalog number 10107735), 50 μM adenosine triphosphate ATP (from Sigma, catalog number A7966) and 2 mM phosphoenolpyruvate (from Roche, catalog number 128112). The required reaction buffer in which the biochemical reaction takes place consists of 50 mM Trizma hydrochloride Tris-HCl pH: 7.5 (from Sigma, catalog number T3253), 5 mM magnesium chloride MgCl2 (from Sigma, catalog number M8266), 0.2 mM DL-dithiothreitol DTT (from Sigma, catalog number D9779), 2 mM ethylenediaminetetraacetic acid EDTA (from Sigma, catalog number E6758), 0.01% Triton X-100 (from Sigma, catalog number T8787) and 0.05% bovine serum albumin BSA (from Sigma, catalog number B4287). Active substances are dissolved in dimethyl sulfoxide DMSO (from Sigma, catalog number D8418) in a concentration of 10 mM. […]

Sequence of Glycogen synthase kinase-3 beta (P49841 whole entry): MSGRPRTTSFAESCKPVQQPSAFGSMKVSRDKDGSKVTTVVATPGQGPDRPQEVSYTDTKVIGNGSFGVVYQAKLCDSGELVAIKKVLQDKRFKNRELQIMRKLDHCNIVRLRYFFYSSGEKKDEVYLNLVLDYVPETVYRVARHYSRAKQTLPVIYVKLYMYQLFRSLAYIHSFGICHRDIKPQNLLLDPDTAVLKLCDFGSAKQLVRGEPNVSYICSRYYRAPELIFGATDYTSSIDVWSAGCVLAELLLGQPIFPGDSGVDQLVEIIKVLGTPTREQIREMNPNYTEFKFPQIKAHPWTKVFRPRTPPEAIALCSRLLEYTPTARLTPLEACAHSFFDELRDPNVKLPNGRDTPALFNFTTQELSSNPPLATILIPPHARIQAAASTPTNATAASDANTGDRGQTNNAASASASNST

IC50: 16 nM
Compound: N#Cc1sc(NCCNc2nc(-c3ccc(Cl)cc3Cl)cn3ccnc23)nc1N
